{"source": "paper PMC10178127", "about": "“Immunomodulatory Effects of the Pea Defensin Psd1 in the Caco-2/Immune Cells Co-Culture upon Candida albicans Infection” (International Journal of Molecular Sciences, 2023)", "key": {"[1]": {"system": "polarized Caco-2 monolayer", "assay": "Real-time PCR of HBD-2, IL-1β, IL-8/CXCL8 genes in Caco-2 cells", "assay_type": "cell-based, human", "experimental": "Caco-2 cells were seeded into the wells of 24-well plates in the complete RPMI-1640 medium containing 10% FBS and 1X antibiotic-antimycotic solution and kept in a humidified CO2-incubator (5% CO2, 37 °C). Cells were grown for 18 days and the medium was changed twice a week. The presence of a cell monolayer was checked using an inverted microscope and the plates were incubated one more week for complete polarization of Caco-2 cells. Caco-2 cells were stimulated by adding fresh complete RPMI-1640 medium without antibiotics, containing Psd1 at the final concentration of 2 µM or Candida albicans at the concentration of 5 × 10^4 cells/mL (1.3 × 10^4 cells per cm^2 of Caco-2 monolayer) or yeast cells together with the pea defensin at the same concentration. RPMI-1640 medium only was used in control wells.\nTotal RNA was isolated from Caco-2 cells using TRIzol reagent (Invitrogen) according to the manufacturer’s instructions after 4 or 24 h of stimulation and cell washing by RPMI-1640 medium. The quality and quantity of total RNA were determined by the A260/280 ratio using NanoPhotometer NP80 (Implen GmbH, München, Germany) as well as agarose gel electrophoresis (Supporting Materials, Figure S3). RNase inhibitor (Evrogen, Moscow, Russia) was added to the final preparation of total RNA. Two μg of total RNA was taken to synthesize the cDNA using MINT-Universal cDNA synthesis kit (Evrogen, Moscow, Russia) containing MMLV-based reverse transcriptase following the manufacturer’s instructions.\nReal-time PCR was performed on CFX Opus 96 Real-Time PCR System (Bio-Rad, Hercules, CA, USA) using the SYBR Green PCR kit (Evrogen, Moscow, Russia) and target-specific primers (Supporting Materials, Table S4). The internal control housekeeping gene GAPDH was amplified simultaneously in separate reaction tubes [36]. The reaction conditions were set as follows: initial heating at 95 °C for 3 min, followed by 50 cycles of reactions at 95 °C (15 s), followed by 62 °C (20 s), and finally 72 °C (30 s). Melt curves were obtained using a temperature increment from 50 to 95 °C at 0.5 °C/5 s (Supporting Materials, Figure S4). The threshold cycle number (CT) of reactions was determined using the CFX Maestro 2.2 (version 5.2.008.0222) software (Bio-Rad, Hercules, CA, USA). The efficiency of PCR was monitored by using LinRegPCR online tool (https://www.gear-genomics.com/rdml-tools/). The relative expression of the genes of interest was calculated by normalization to GAPDH using the standard 2^−ΔΔCT method. Unstimulated Caco-2 cells after 4 and 24 h of incubation were used as controls. Experiments were performed twice in six technical replications. Gene expression in controls and experimental samples was compared with a t-test using GraphPad Prism v.8.0.1. The p-values ≤ 0.05 were considered significant."}, "C. albicans v47a3": {"system": "C. albicans v47a3", "assay": "Yeast growth in Caco-2/C. albicans co-culture, microscopy", "assay_type": "cell-based, Candida albicans", "details": "2 μM Psd1, 4 and 24 h", "experimental": "Candida albicans cells in stock were inoculated onto modified YPD (yeast extract 5 g/L, peptone 10 g/L, glucose 10 g/L) agar plates, and incubated for 24 h at 37 °C. After replating, cells were cultured in complete RPMI-1640 (Capricorn Scientific) without antibiotics at 37 °C to optical density 1.0 at 540 nm, centrifuged, and diluted up to the concentration of 5 × 10^4 cells/mL in fresh RPMI-1640 without FBS and antibiotics. In the case of studying combined action on the epithelium of yeast cells and the pea Psd1 recombinant peptide was dissolved in water at the concentration of 200 μM and was added to yeast cell suspension up to the final concentration of 2 μM. Yeast growth and morphology in the presence or absence of peptide under co-cultivation with Caco-2 cells in a 24-well plate were estimated using an inverted microscope, Olympus CKX41 (Olympus, Tokyo, Japan)."}, "Candida albicans enzymes": {"system": "Candida albicans enzymes", "details": "cited from earlier work"}, "[2]": {"system": "Beas-2B human bronchial epithelial cells", "details": "cited from earlier work", "source_text": "It was shown previously that pea Psd1 is not toxic for Beas-2B human bronchial epithelial cells. Here we investigated the cytotoxic action of the pea Psd1 on human immune cells by using a human peripheral blood mononuclear cells (PBMCs) fraction."}}, "data": [{"substance": "Psd1: pea defensin from Pisum sativum (UNIPROT P81929), recombinant peptide overexpressed in Escherichia coli (KTCEHLADTYRGVCFTNASCDDHCKNKAHLISGTCHNWKCFCTQNC; UniProt P81929 1-46, looked up)", "values": [{"measurement": "expression of HBD-2, IL-1β and IL-8/CXCL8 genes", "setting": "[1]; 2 μM Psd1, 24 h", "result": "Immunostimulatory action of Psd1 was observable"}, {"measurement": "expression of HBD-2, IL-1β and IL-8/CXCL8 genes", "setting": "[1]; 2 μM Psd1 alone, 4 h, relative to untreated Caco-2", "result": "upregulated all three genes"}, {"measurement": "expression of HBD-2, IL-1β and IL-8/CXCL8 genes", "setting": "[1]; 2 μM Psd1 with C. albicans vs C. albicans alone, 24 h, p < 0.05", "result": "significantly reduced the inhibitory effect of pathogenic fungus"}, {"measurement": "expression of HBD-2, IL-1β and IL-8/CXCL8 genes", "setting": "[1]; 2 μM Psd1 with C. albicans, 4 h", "result": "more pronounced activation of the protective immune response"}, {"measurement": "growth of C. albicans in Caco-2/C. albicans co-culture", "setting": "C. albicans v47a3", "result": "did not inhibit the growth of C. albicans"}, {"measurement": "stability to proteolysis by Candida albicans enzymes", "setting": "Candida albicans enzymes", "result": "stable to proteolysis by Candida albicans enzymes"}, {"measurement": "toxicity for Beas-2B cells", "setting": "[2]", "result": "not toxic"}]}]}
